ChEMBL document CHEMBL5728593, “Small molecule inhibitors of Galectin-3” (2021)

Molecular target: Galectin-3 (Homo sapiens, UniProt P17931)
Test: Biological Assay: ASSAY BUFFER Composition: 25 mM HEPES, 100 mM NaCl, 0.005% Tween 20, 0.05% BSA prepared in sterile water (all reagents from Sigma). PROTOCOL: The Gal-3 assays were performed in 384 white Opti plates in three replicates at room temperature with gentle shaking at 250-300 rpm From the original stocks, […] working stock concentrations of His-tagged recombinant human Gal-3 (hGal-3) and that of B-ASF were prepared. From the working stock, 20 μl of hGal-3 (15 nM) and 20 μl B-ASF (15 nM) were added to the plates. In Negative Control, only hGal-3 was added. A concentration range of 50× working stocks were prepared for the compounds in 100% DMSO. Aliquots of 1 uL of the compounds were added to the wells and pre-incubated with 20 μl hGal-3 per well for 30 minutes Then 20 μl B-ASF were added and incubated for another 1 hour. To detect the signal, 5 μ(final conc. of 1.0 nM) terbium labelled Anti-His antibody was added and incubated for 30 min followed by adding 5 μ(final conc. of 20 nM) Streptavidin d2 and incubation for another 1 hour. The assay signal was detected using HTRF screen protocol (Excitation wavelength=340 nm, emission wavelength=615 nm/665 nm) on Envision 2104 Multilabel Reader. Data analysed using Toolset and Curve Master. Results are reported in the experimental section (IC50 in μM).

Sequence of Galectin-3 (P17931 whole entry): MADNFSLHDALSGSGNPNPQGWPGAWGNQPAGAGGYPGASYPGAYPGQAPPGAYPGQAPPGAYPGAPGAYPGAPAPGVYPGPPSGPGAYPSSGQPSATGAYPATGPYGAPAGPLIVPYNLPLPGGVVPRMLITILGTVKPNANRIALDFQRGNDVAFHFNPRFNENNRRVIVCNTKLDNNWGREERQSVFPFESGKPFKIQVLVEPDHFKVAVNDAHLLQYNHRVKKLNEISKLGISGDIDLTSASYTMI

IC50 [nM] | Compound
200 | NC(=O)CO[C@@H]1[C@@H](n2cc(-c3cc(F)c(F)c(F)c3)nn2)[C@@H](O)[C@@H](CO)O[C@@H]1Sc1ccc(Cl)c(Cl)c1
224 | COCCO[C@@H]1[C@@H](n2cc(-c3cc(F)c(F)c(F)c3)nn2)[C@@H](O)[C@@H](CO)O[C@@H]1Sc1ccc(Cl)c(Cl)c1
